Source: patent publication US8946266B2, “Substituted triazole and imidazole derivatives as gamma secretase modulators” (Janssen Pharmaceuticals, Inc., priority 2009, dated 2015)
Read-outs that look alike come from different tables or passages of the source.

Experiments:
[1] = test system: Aβ42; assay: γ-secretase-modulating activity, Method 2: Aβ42 Alphalisa in supernatant of SKNBE2 cells carrying APP 695-wild type (Table 3b); type: cell-based; settings: overnight
Procedure: (§1) Screening was carried out using SKNBE2 cells carrying the APP 695-wild type, grown in Dulbecco's Modified Eagle's Medium/Nutrient mixture F-12 (DMEM/NUT-mix F-12) (HAM) provided by Invitrogen (cat no. 10371-029) containing 5% Serum/Fe supplemented with 1% non-essential amino acids, 1-glutamine 2 mM, Hepes 15 mM, penicillin 50 U/ml (units/ml) en streptomycin 50 μg/ml. Cells were grown to near confluency.
(§2) The screening was performed using a modification of the assay as described in Citron et al (1997) Nature Medicine 3: 67. Briefly, cells were plated in a 384-well plate at 10^4 cells/well in Ultraculture (Lonza, BE12-725F) supplemented with 1% glutamine (Invitrogen, 25030-024), 1% non-essential amino acid (NEAA), penicillin 50 U/ml en streptomycin 50 μg/ml in the presence of test compound at different test concentrations. The cell/compound mixture was incubated overnight at 37° C., 5% CO2. The next day the media were assayed by two sandwich immuno-assays, for Aβ42 and Aβtotal.
(§3) Aβtotal and Aβ42 concentrations were quantified in the cell supernatant using the Aphalisa technology (Perkin Elmer). Alphalisa is a sandwich assay using biotinylated antibody attached to streptavidin coated donorbeads and antibody conjugated to acceptor beads. In the presence of antigen, the beads come into close proximity. The excitation of the donor beads provokes the release of singlet oxygen molecules that trigger a cascade of energy transfer in the acceptor beads, resulting in light emission. To quantify the amount of Aβ42 in the cell supernatant, monoclonal antibody specific to the C-terminus of Aβ42 (JRF/cAβ42/26) was coupled to the receptor beads and biotinylated antibody specific to the N-terminus of Aβ (JRF/AβN/25) was used to react with the donor beads. To quantify the amount of Aβ total in the cell supernatant, monoclonal antibody specific to the N-terminus of Aβ (JRF/AβN/25) was coupled to the receptor beads and biotinylated antibody specific to the mid region of Aβ (biotinylated 4G8) was used to react with the donor beads.
To obtain the values reported in Table 3b, the data were calculated as percentage of the maximum amount of amyloid Beta 42 measured in the absence of the test compound.
(§4) The sigmoidal dose response curves were analyzed using non-linear regression analysis with percentage of the control plotted against the log concentration of the compound. A 4-parameter equation was used to determine the IC50.
(§5) The IC50 values are shown in Table 3b (Aβtot means Aβtotal).

[2] = test system: Aβtotal; assay: γ-secretase-modulating activity, Method 2: Aβtotal Alphalisa in supernatant of SKNBE2 cells carrying APP 695-wild type (Table 3b); type: cell-based; settings: overnight, read-out: IC50 Aβtot
Procedure: as §1, §2, §3, §4, §5

| Compound | IC50 [1] [nM] | IC50 [2] [nM] | IC50 ([1]; Homo sapiens) [nM] | IC50 ([2]; Homo sapiens) [nM] |
| --- | --- | --- | --- | --- |
| COc1cc(-c2nc3n(n2)CCOC3c2ccc(F)cc2C)ccc1-n1cnc(C)c1 (stereo not drawn) [Compound 166] | 65 | > 10000 |  |  |
| COc1nc(-c2nc3n(n2)CCC[C@@H]3c2ccccc2C(F)(F)F)ccc1-n1cnc(C)c1 [Compound 262] | 324 | > 10000 |  |  |
| COCCn1nc(-c2ccc(-n3cnc(C)c3)c(OC)c2)nc1-c1ccccc1Cl [Compound 87] | 759 | > 10000 |  |  |
| COc1cc(-c2nc(N[C@@H](C)c3ccc(F)cc3)nn2C)ccc1-n1cnc(C)c1 [Compound 62] | 3240 | > 10000 |  |  |
| COc1cc(-c2nc3n(n2)CCCCC3c2ccccc2C(F)(F)F)ccc1-n1cnc(C)c1 (stereo not drawn) [Compound 283] | 78 | 7940 |  |  |
| COc1cc(-c2nc(-c3ccc(F)cc3)n(C(C)C)n2)ccc1-n1cnc(C)c1 [Compound 83] | 257 | > 10000 |  |  |
| COc1cc(-c2nc(-c3ccc(F)cc3)n(C(C)C)n2)ccc1-n1cnc(C)c1 [Compound 5] |  |  | 170 | > 10000 |
| COc1cc(-c2n[nH]c(-c3cccc(C(F)(F)F)c3)n2)ccc1-n1cnc(C)c1 [Compound 6] |  |  | 309 | > 10000 |
| COc1cc(-c2nc(Nc3ccccc3C(F)(F)F)n(C(C)C)n2)ccc1-n1cnc(C)c1 [Compound 176] | 46 | > 10000 |  |  |
| COc1cc(-c2nc3n(n2)CCCc2ccccc2-3)ccc1-n1cnc(C)c1 [Compound 17] |  |  | 407 | > 10000 |
| COc1cc(-c2nc3n(n2)CCC[C@@H]3c2cc(C(F)(F)F)ccc2C)ccc1-n1cnc(C)c1 [Compound 339] | 155 | > 10000 |  |  |
| COc1cc(-c2nc3n(n2)CCC(c2ccccc2C(F)(F)F)N3)ccc1-n1cnc(C)c1 (stereo not drawn) [Compound 274] |  |  | 155 | 8710 |
| COc1cc(-c2nc(Cc3ccc(F)cc3C(F)(F)F)nn2C)ccc1-n1cnc(C)c1 [Compound 57] | 851 | > 10000 |  |  |
| CCn1nc(-c2ccc(-n3cnc(C)c3)c(OC)c2)nc1Nc1ccccc1C(F)(F)F [Compound 147] | 41 | > 10000 |  |  |
| COc1cc(-c2nc(N3CCCC(c4ccccc4)C3)n(C)n2)ccc1-n1cnc(C)c1 (racemic) [Compound 78] | 50 | 8510 |  |  |
| COc1cc(-c2nc3n(n2)CCCOC3c2ccc(F)cc2)ccc1-n1cnc(C)c1 (stereo not drawn) [Compound 284] | 229 | > 10000 |  |  |

| Compound | IC50 [1] [nM] | IC50 [2] [nM] | IC50 ([1]; Homo sapiens) [nM] | IC50 ([2]; Homo sapiens) [nM] |
| --- | --- | --- | --- | --- |
| COc1cc(-c2nc(C3CCCCC3)n(C)n2)ccc1-n1cnc(C)c1 [Compound 34] | 240 | > 10000 |  |  |
| COc1cc(-c2nc3n(n2)CCN(C(C)=O)C3c2ccccc2C(F)(F)F)ccc1-n1cnc(C)c1 (stereo not drawn) [Compound 276] |  |  | 832 | > 10000 |
| COc1cc(-c2nc(NC3CCCC(C(F)(F)F)C3)n(C)n2)ccc1-n1cnc(C)c1 (stereo not drawn) [Compound 95] | 912 | > 10000 |  |  |
| COc1cc(-c2nc3c(-c4cccc(C(F)(F)F)c4)nccn3n2)ccc1-n1cnc(C)c1 [Compound 293] | 2340 | > 10000 |  |  |
| COc1cc(-c2nc3n(n2)CCCC3c2cccc(F)c2)ccc1-n1cnc(C)c1 (stereo not drawn) [Compound 252] | 240 | > 10000 |  |  |
| Cc1cn(-c2ccc(-c3nc(Nc4cc(C(F)(F)F)ccc4F)n(C)n3)cc2)cn1 [Compound 207] | 123 | > 10000 |  |  |
| COc1cc(-c2nc3c(-c4ccccc4Cl)cccn3n2)ccc1-n1cnc(C)c1 [Compound 286] | 145 | 10000 |  |  |
| COc1cc(-c2nc(C3(c4ccc(F)cc4)CC3)n(C)n2)ccc1-n1cnc(C)c1 [Compound 47] | 302 | 3240 |  |  |
| COc1cc(-c2nc3n(n2)CCCC3c2ccccc2C(F)(F)F)ccc1-n1cnc(C)c1 (stereo not drawn) [Compound 336] | 129 | > 10000 |  |  |
| COc1cc(-c2nc(C3(c4ccc(F)cc4)CC3)nn2C)ccc1-n1cnc(C)c1 [Compound 60] | 8510 | > 10000 |  |  |
| COc1cc(-c2nc(N3CCCN(C(C)=O)CC3)n(C(C)C)n2)ccc1-n1cnc(C)c1 [Compound 301] | > 10000 | > 10000 |  |  |
| COc1cc(-c2nc3n(n2)CCCC3c2ccccc2Cl)ccc1-n1cnc(C)c1 (stereo not drawn) [Compound 256] | 21 | > 10000 |  |  |
| COc1cc(-c2n[nH]c(-c3ccc(F)cc3)n2)ccc1-n1cnc(C)c1 [Compound 4] |  |  | 646 | > 10000 |
| Cc1cn(-c2ccc(-c3nc(Nc4cc(C(F)(F)F)ccc4F)n(C)n3)nc2C)cn1 [Compound 319] | 490 | > 10000 |  |  |
| COc1nc(-c2nc3n(n2)CCCC3c2ccc(F)cc2C)ccc1-n1cnc(C)c1 (stereo not drawn) [Compound 313] | 68 | > 10000 |  |  |

Second part, the compound after the results:

| IC50 [1] [nM] | IC50 [2] [nM] | IC50 ([1]; Homo sapiens) [nM] | IC50 ([2]; Homo sapiens) [nM] | Compound |
| --- | --- | --- | --- | --- |
| 214 | > 10000 |  |  | COc1ccc(F)cc1Nc1nc(-c2ccc(-n3cnc(C)c3)c(OC)c2)nn1C [Compound 190] |
| 63 | > 10000 |  |  | COc1cc(Nc2nc(-c3ccc(-n4cnc(C)c4)c(OC)c3)nn2C)ccc1F [Compound 193] |
| 245 | 6920 |  |  | COc1cc(-c2nc(Nc3cc(F)c(F)c(F)c3)n(C)n2)ccc1-n1cnc(C)c1 [Compound 48] |
| 1150 | > 10000 |  |  | COc1cc(-c2nc(Nc3cccc(NC(C)=O)c3)n(C)n2)ccc1-n1cnc(C)c1 [Compound 222] |
| 36 | 6310 |  |  | COc1cc(-c2nc(Nc3cccc(Cl)c3)n(C)n2)ccc1-n1cnc(C)c1 [Compound 103] |
| 56 | > 10000 |  |  | COc1cc(-c2nc(Nc3ccccc3Br)n(C)n2)ccc1-n1cnc(C)c1 [Compound 102] |
| 4470 | > 10000 |  |  | COc1cc(-c2nc(Nc3ccnc(C)c3)n(C)n2)ccc1-n1cnc(C)c1 [Compound 239] |
| 603 | > 10000 |  |  | COc1cc(-c2nc(Nc3cccnc3C(F)(F)F)n(C)n2)ccc1-n1cnc(C)c1 [Compound 233] |
| 129 | > 10000 |  |  | COc1cc(-c2nc(Nc3c(F)ccc(OC)c3F)n(C)n2)ccc1-n1cnc(C)c1 [Compound 196] |
| 129 | 9120 |  |  | COc1cc(-c2nc(Nc3ccc(F)c(F)c3)n(C)n2)ccc1-n1cnc(C)c1 [Compound 112] |
| 741 | > 10000 |  |  | COc1cc(-c2nc(Nc3cccnc3OC)n(C)n2)ccc1-n1cnc(C)c1 [Compound 241] |
| 708 | > 10000 |  |  | COc1cc(-c2nc(Nc3cc(NC(C)=O)ccc3F)n(C)n2)ccc1-n1cnc(C)c1 [Compound 221] |
|  |  | 126 | > 10000 | COc1cc(-c2nc(Nc3cc(C(C)=O)ccc3F)n(C)n2)ccc1-n1cnc(C)c1 [Compound 223] |
| 178 | > 10000 |  |  | COc1cc(-c2nc(Nc3c(F)cccc3C(F)(F)F)n(C)n2)ccc1-n1cnc(C)c1 [Compound 208] |
| > 10000 | > 10000 |  |  | COc1cc(-c2nc(Nc3ccc(=O)n(C)c3)n(C)n2)ccc1-n1cnc(C)c1 [Compound 242] |
| 1440 | > 10000 |  |  | COc1cc(-c2nc(Nc3ccc(C#N)cc3)n(C)n2)ccc1-n1cnc(C)c1 [Compound 225] |
| 13 | > 10000 |  |  | COc1cc(-c2nc(Nc3cc(Cl)ccc3OC(F)(F)F)n(C)n2)ccc1-n1cnc(C)c1 [Compound 183] |
| 41 | 9550 |  |  | COc1ccc(Cl)cc1Nc1nc(-c2ccc(-n3cnc(C)c3)c(OC)c2)nn1C [Compound 192] |
| 30 | > 10000 |  |  | COc1cc(-c2nc(Nc3cc(Cl)ccc3C(F)(F)F)n(C)n2)ccc1-n1cnc(C)c1 [Compound 143] |
| 56 | 5890 |  |  | COc1cc(-c2nc(Nc3ccc4c(c3)OC(F)(F)O4)n(C)n2)ccc1-n1cnc(C)c1 [Compound 231] |
| 1580 | > 10000 |  |  | COc1cc(-c2nc(Nc3ccc(C)nc3)n(C)n2)ccc1-n1cnc(C)c1 [Compound 238] |
| 110 | > 10000 |  |  | COc1cc(-c2nc(Nc3ccc(C(F)(F)F)cc3F)n(C)n2)ccc1-n1cnc(C)c1 [Compound 134] |
| 575 | > 10000 |  |  | COc1cccc(-c2nc(-c3ccc(-n4cnc(C)c4)c(OC)c3)nn2C)c1 [Compound 36] |
| 178 | > 10000 |  |  | COc1ccccc1Nc1nc(-c2ccc(-n3cnc(C)c3)c(OC)c2)nn1C [Compound 187] |
| 17 | > 10000 |  |  | COc1cc(-c2nc(Nc3cc(C(F)(F)F)c(Cl)cc3F)n(C)n2)ccc1-n1cnc(C)c1 [Compound 212] |
| 91 | > 10000 |  |  | COc1cc(-c2nc(Nc3cccc(F)c3OC)n(C)n2)ccc1-n1cnc(C)c1 [Compound 219] |
